Two molecules from article PMC4726752, “Coenzyme Q Biosynthesis: Evidence for a Substrate Access Channel in the FAD-Dependent Monooxygenase Coq6” (PLoS Computational Biology, 2016) can be followed below.

By stoichiometry N is commonly meant a count of units in the complex or per binding partner.

The target in one series is T1, Coq6p-MBP (Coq6p) (Saccharomyces cerevisiae, UniProt P53318).
T1 construct: gene COQ6
The following applies: co-purified cofactor; tetrameric Coq6p-MBP, purified in Tris-HCl pH 7.5.

Series [1] deals with the molecule itself. In words: SEC; gel filtration on Superdex 200 10/300 GL calibrated with standards of known molecular mass (Bio-Rad); purified Coq6p-MBP. In general terms: In gel filtration, larger molecules generally elute earlier.

T1 sequence (P53318 whole entry): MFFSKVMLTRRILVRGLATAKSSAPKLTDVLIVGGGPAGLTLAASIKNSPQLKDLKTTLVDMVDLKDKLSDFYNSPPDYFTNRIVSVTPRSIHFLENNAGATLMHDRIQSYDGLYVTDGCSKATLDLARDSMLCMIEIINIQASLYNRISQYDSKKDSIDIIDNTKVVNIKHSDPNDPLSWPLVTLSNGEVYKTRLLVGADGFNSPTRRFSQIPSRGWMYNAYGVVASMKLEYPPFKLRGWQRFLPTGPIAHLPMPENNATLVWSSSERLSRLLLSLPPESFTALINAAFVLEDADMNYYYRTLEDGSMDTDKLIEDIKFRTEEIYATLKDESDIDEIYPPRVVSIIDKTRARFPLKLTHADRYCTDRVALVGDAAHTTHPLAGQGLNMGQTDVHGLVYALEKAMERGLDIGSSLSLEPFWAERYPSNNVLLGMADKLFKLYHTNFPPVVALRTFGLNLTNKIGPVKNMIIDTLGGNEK

In the case of `Cc1cc2nc3c(=O)[nH]c(=O)nc-3n(C[C@H](O)[C@H](O)[C@H](O)COP(=O)(O)OP(=O)(O)OC[C@H]3O[C@@H](n4cnc5c(N)ncnc54)[C@H](O)[C@@H]3O)c2cc1C` [FAD], the “FAD occupancy per monomer” value on Coq6p-MBP (Coq6p) was ~ 85%.

B1: Coq6p-MBP fusion protein (enzyme, S. cerevisiae, UniProt P53318 18-479, looked up)
chain: ATAKSSAPKLTDVLIVGGGPAGLTLAASIKNSPQLKDLKTTLVDMVDLKDKLSDFYNSPPDYFTNRIVSVTPRSIHFLENNAGATLMHDRIQSYDGLYVTDGCSKATLDLARDSMLCMIEIINIQASLYNRISQYDSKKDSIDIIDNTKVVNIKHSDPNDPLSWPLVTLSNGEVYKTRLLVGADGFNSPTRRFSQIPSRGWMYNAYGVVASMKLEYPPFKLRGWQRFLPTGPIAHLPMPENNATLVWSSSERLSRLLLSLPPESFTALINAAFVLEDADMNYYYRTLEDGSMDTDKLIEDIKFRTEEIYATLKDESDIDEIYPPRVVSIIDKTRARFPLKLTHADRYCTDRVALVGDAAHTTHPLAGQGLNMGQTDVHGLVYALEKAMERGLDIGSSLSLEPFWAERYPSNNVLLGMADKLFKLYHTNFPPVVALRTFGLNLTNKIGPVKNMIIDTLGGNEK
notes: Coq6p, FAD-dependent monooxygenase of ubiquinone biosynthesis, S. cerevisiae, UniProt P53318; coq6 gene optimised for E. coli and cloned in pMAL-c2X between BamHI and EcoRI downstream of malE; Printed mass of the fusion is 96.3 kDa with an MBP tag of 45 kDa, which would fit the whole 479-residue Coq6p (my surmise); source: E. coli BL21 (DE3) co-transformed with pMALc2x-Coq6p and pGro7 …
In the case of B1, in series [1], the “stoichiometry N” value was found to be 4.
